Measured values: patent US9121022B2, “Method for controlling herbicide-resistant plants” (priority 2010, dated 2015)

Tested on: Nicotiana benthamiana plants (endogenous PDS, EPSPS, RuBisCO genes)
Assay: PDS, EPSPS or RuBisCO anti-sense polynucleotides on Nicotiana benthamiana, plant height and phenotype (Example 33)
Format: in vivo
Source text: An anti-sense polynucleotide with the sequence […] (SEQ ID NO:34) was designed for the endogenous Nicotiana benthamiana phytoene desaturase (PDS) gene, which has the cDNA sequence fragments […] […] (SEQ ID NO:38). Anti-sense polynucleotides with the sequences […] (SEQ ID NO:279), […] (SEQ ID NO:280), […] (SEQ ID NO:281), […] (SEQ ID NO:282), […] (SEQ ID NO:283), and […] (SEQ ID NO:284) were designed for the endogenous Nicotiana benthamiana 5-enolpyruvylshikimate-3-phosphate synthase (EPSPS) gene, based on the Nicotiana benthamiana EPSPS cDNA sequence […] […] (SEQ ID NO:285), […] […] (SEQ ID NO:286), and […] […] (SEQ ID NO:287). Anti-sense polynucleotides with the sequences […] (AK195, RBCS—1-2-3-4, SEQ ID NO:288), […] (AK196, RBCS—1-2-3-4, SEQ ID NO:289), […] (AK197, RBCS—1-2-3-4, SEQ ID NO:290), […] (AK198, RBCS—1-2, SEQ ID NO:291), […] (AK199, RBCS—1-2, SEQ ID NO:292), […] (AK200, RBCS—3-4, SEQ ID NO:293), […] (AK201, RBCS—3-4, SEQ ID NO:294), and […] (AK202, RBCS—3-4, SEQ ID NO:295) were designed for the endogenous Nicotiana benthamiana ribulose-1,5-bisphosphate carboxylase oxygenase (RuBisCO) gene, based on the Nicotiana benthamiana chloroplastic RuBisCO small chain 2A cDNA sequence fragments • […] […]

Sequence: CATCTCCTTTAATTGTACTGC (DNA, backbone not given here) [PDS 21-mer anti-sense ssDNA]
- plant height (FIGS. 36A-36C) (12 days (PDS and EPSPS) or 10 days (RuBisCO) after treatment): severe stunting
- other phenotype (PDS 25 nanomoles, EPSPS and RuBisCO 50 nanomoles of each polynucleotide per plant): bleaching
